Counter-ions that a name gives are not always drawn. Like-named read-outs stand apart in the source and are kept apart here.
Key:
ROCK1 = biological target: T1, ROCK1 (Homo sapiens, UniProt Q13464); assay: ROCK1 kinase binding affinity, DiscoverX KINOMEscan KdELECT; conditions: equilibrium dissociation constant, 11-point 3-fold dilution series
T1 construct: purchased DiscoverX (KINOMEscan KdELECT service); host or cells: E. coli BL21-derived (T7 phage) or HEK-293
Experimental: (§1) 1. ROCK1 and ROCK2 kinase assays: The ROCK1 and ROCK2 kinase binding affinities of compounds in this invention were determined by DiscoverX's KINOMEscan™ KdELECT technology (https://www.discoverx.com/kinomescan-elect-kinase-screening-and-profiling-services): Kinase-tagged T7 phage strains were prepared in an E. coli host derived from the BL21 strain. E. coli were grown to log-phase and infected with T7 phage and incubated with shaking at 32° C. until lysis. The lysates were centrifuged and filtered to remove cell debris. The remaining kinases were produced in HEK-293 cells and subsequently tagged with DNA for qPCR detection. Streptavidin-coated magnetic beads were treated with biotinylated small molecule ligands for 30 minutes at room temperature to generate affinity resins for kinase assays. The liganded beads were blocked with excess biotin and washed with blocking buffer (SeaBlock (Pierce), 1% BSA, 0.05% Tween 20, 1 mM DTT) to remove unbound ligand and to reduce nonspecific binding. […] Test compounds were prepared as 111X stocks in 100% DMSO. Kds were determined using an 11-point 3-fold compound dilution series with three DMSO control points. […] The compounds were then diluted directly into the assays such that the final concentration of DMSO was 0.9%. All reactions performed in polypropylene 384-well plate. Each was a final volume of 0.02 ml. […] The kinase concentration in the eluates was measured by qPCR.

ROCK2 = biological target: T2, ROCK2 (Homo sapiens, UniProt O75116); assay: ROCK2 kinase binding affinity, DiscoverX KINOMEscan KdELECT; conditions: for ROCK 2 Selectivity: ROCK2 over ROCK1, from Kd values, N/C = not calculated
T2 construct: purchased DiscoverX (KINOMEscan KdELECT service); host or cells: E. coli BL21-derived (T7 phage) or HEK-293
Experimental: as §1

[1] = equilibrium dissociation constant, 11-point 3-fold dilution series, read-out: Kd (μM) ROCK2

T2 sequence (O75116 whole entry): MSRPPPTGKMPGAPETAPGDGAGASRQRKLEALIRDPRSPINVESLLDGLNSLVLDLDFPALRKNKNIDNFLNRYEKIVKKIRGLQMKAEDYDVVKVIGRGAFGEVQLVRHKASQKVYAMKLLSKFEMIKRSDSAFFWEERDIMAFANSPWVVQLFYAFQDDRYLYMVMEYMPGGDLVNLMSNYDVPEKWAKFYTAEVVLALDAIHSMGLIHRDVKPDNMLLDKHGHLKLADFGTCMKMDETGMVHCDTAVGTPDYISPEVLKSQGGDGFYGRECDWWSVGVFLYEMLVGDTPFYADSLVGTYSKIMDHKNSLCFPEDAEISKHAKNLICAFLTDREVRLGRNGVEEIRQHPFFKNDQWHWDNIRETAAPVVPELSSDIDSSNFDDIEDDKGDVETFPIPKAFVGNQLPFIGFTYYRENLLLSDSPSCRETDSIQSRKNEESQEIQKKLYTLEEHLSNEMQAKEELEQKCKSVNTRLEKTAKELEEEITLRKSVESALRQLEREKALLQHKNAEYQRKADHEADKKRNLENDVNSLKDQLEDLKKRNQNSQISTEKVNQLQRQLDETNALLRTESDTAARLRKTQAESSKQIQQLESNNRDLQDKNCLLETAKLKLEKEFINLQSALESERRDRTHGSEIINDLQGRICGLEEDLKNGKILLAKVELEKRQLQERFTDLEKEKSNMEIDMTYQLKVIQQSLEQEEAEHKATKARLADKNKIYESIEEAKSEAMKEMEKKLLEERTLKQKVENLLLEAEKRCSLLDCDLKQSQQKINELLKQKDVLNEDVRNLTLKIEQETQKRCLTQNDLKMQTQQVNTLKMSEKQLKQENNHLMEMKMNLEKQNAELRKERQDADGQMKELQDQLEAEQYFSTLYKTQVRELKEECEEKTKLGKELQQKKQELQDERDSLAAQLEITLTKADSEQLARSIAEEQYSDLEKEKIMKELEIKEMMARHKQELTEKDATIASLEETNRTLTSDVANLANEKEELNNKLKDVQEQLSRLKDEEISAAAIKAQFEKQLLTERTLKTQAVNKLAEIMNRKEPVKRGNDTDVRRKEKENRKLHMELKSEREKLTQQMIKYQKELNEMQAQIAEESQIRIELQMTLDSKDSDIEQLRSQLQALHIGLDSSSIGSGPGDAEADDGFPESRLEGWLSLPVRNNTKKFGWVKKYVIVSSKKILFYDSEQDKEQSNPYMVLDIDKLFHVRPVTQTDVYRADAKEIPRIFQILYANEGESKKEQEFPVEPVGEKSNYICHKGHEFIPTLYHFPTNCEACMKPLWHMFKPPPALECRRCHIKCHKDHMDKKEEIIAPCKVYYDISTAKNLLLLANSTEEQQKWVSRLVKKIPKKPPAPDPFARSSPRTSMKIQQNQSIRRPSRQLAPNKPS
T1 sequence (Q13464 whole entry): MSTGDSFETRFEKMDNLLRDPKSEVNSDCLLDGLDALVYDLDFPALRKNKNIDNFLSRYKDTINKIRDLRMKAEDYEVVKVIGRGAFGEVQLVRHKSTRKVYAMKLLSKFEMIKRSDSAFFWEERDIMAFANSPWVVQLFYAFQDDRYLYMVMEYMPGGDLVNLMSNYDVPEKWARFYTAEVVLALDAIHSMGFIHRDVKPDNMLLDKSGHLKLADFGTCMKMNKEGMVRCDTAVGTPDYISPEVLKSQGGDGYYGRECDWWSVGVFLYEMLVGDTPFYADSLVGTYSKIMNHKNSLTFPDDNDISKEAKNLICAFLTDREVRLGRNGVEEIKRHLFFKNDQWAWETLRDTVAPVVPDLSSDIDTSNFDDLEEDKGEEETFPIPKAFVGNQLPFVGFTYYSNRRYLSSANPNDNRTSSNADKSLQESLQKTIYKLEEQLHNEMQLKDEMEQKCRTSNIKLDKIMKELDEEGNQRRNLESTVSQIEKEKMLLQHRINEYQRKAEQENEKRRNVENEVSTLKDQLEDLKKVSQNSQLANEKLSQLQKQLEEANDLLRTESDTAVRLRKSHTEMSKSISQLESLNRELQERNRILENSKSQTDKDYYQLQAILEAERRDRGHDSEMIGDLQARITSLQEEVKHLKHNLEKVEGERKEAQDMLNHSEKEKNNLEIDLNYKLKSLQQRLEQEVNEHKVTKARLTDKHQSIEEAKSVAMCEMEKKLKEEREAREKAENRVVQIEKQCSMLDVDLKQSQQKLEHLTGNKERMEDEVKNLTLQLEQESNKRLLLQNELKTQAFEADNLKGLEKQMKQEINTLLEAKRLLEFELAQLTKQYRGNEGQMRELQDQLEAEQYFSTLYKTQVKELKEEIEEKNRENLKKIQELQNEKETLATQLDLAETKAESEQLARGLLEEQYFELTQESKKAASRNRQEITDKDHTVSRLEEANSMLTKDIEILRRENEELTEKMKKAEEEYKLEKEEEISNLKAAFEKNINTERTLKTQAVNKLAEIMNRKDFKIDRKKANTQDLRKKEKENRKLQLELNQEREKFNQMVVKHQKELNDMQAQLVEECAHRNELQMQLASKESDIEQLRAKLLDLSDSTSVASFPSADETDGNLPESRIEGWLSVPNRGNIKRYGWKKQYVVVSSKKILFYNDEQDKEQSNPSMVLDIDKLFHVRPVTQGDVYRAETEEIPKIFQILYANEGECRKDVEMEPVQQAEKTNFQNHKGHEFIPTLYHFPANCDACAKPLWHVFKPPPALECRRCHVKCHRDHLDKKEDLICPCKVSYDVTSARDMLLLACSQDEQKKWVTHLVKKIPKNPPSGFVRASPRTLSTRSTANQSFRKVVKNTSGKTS

| Structure (SMILES) | Kd (ROCK1) | ROCK 2 Selectivity (ROCK2) | Kd (ROCK2; [1]) | Kd (ROCK2) |
| --- | --- | --- | --- | --- |
| C(#Cc1ccnc(-c2ccnc(N3CCn4cnnc4C3)n2)n1)c1ccc2[nH]ncc2c1 [Ex. 59, 7-(4-((1H-Indazol-5-yl)ethynyl)-[2,4′-bipyrimidin]-2′-yl)-5,6,7,8-tetrahydro-[1,2,4]triazolo[4,3-a]pyrazine] | 16 µM | 21.3 | 0.75 µM |  |
| Fc1ccc2c(c1)CN(c1nccc(-c3cccc(C#Cc4cc(F)c5[nH]ncc5c4)n3)n1)C2 [Ex. 21, 7-Fluoro-5-((6-(2-(5-fluoroisoindolin-2-yl)pyrimidin-4-yl)pyridin-2-yl)ethynyl)-1H-indazole] | > 30 µM | >4.4 |  | 6.8 µM |
| COc1ccc2c(c1)CN(c1nccc(-c3nccc(C#Cc4ccc(C#N)cc4)n3)n1)C2 [Ex. 9, 4-((2′-(5-Methoxyisoindolin-2-yl)-[2,4′-bipyrimidin]-4-yl)ethynyl)benzonitrile] | > 30 µM |  | > 30 µM |  |
| N#Cc1ccc(C2CN(c3nccc(-c4nccc(C#Cc5ccc6[nH]ncc6c5)n4)n3)C2)cc1 [Ex. 50, 4-(1-(4-((1H-Indazol-5-yl)ethynyl)-[2,4′-bipyrimidin]-2′-yl)azetidin-3-yl)benzonitrile trifluoroacetate] | 5.4 µM | 45 | 0.12 µM |  |
| COc1ccc2c(c1)CN(c1nccc(-c3nccc(C#Cc4ccc5[nH]ncc5c4)n3)n1)C2 [Ex. 3, 5-((2′-(5-Methoxyisoindolin-2-yl)-[2,4′-bipyrimidin]-4-yl)ethynyl)-1H-indazole] | 0.82 µM | 119 | 0.0069 µM |  |
| FC(F)(F)c1ccc2c(c1)CN(c1nccc(-c3nccc(C#Cc4ccc5[nH]ncc5c4)n3)n1)C2 [Ex. 45, 5-((2′-(5-(Trifluoromethyl)isoindolin-2-yl)-[2,4′-bipyrimidin]-4-yl)ethynyl)-1H-indazole trifluoroacetate] | 0.1 µM | 90.9 | 0.0011 µM |  |
| O=C(COc1ccc2c(c1)CN(c1nccc(-c3nccc(C#Cc4ccc5[nH]ncc5c4)n3)n1)C2)NC1CC1 [Ex. 46, 2-((2-(4-((1H-Indazol-5-yl)ethynyl)-[2,4′-bipyrimidin]-2′-yl)isoindolin-5-yl)oxy)-N-cyclopropylacetamide trifluoroacetate] | 0.13 µM | 56.5 | 0.0023 µM |  |
| COc1ccc2c(c1)CN(c1nccc(-c3nccc(C#Cc4ccc(C(=O)O)cc4)n3)n1)C2 [Ex. 10, 4-((2′-(5-Methoxyisoindolin-2-yl)-[2,4′-bipyrimidin]-4-yl)ethynyl)benzoic acid] | > 30 µM |  | > 30 µM |  |
| CCCN1CCN(c2nccc(-c3nccc(C#Cc4ccc5[nH]ncc5c4)n3)n2)CC1 [Ex. 54, 5-((2′-(4-Propylpiperazin-1-yl)-[2,4′-bipyrimidin]-4-yl)ethynyl)-1H-indazole trifluoroacetate] | 4.6 µM | 10.2 | 0.45 µM |  |
| CN(C)C(=O)COc1cc2c(cn1)CN(c1nccc(-c3nccc(C#Cc4ccc5[nH]ncc5c4)n3)n1)C2 [Ex. 38, 2-((2-(4-((1H-indazol-5-yl)ethynyl)-[2,4′-bipyrimidin]-2′-yl)-2,3-dihydro-1H-pyrrolo[3,4-c]pyridin-6-yl)oxy)-N,N-dimethylacetamide] | 2.8 µM | 4.37 | 0.64 µM |  |
| Oc1cc2c(cn1)CN(c1nccc(-c3nccc(C#Cc4ccc5[nH]ncc5c4)n3)n1)C2 [Ex. 16, 2-(4-((1H-Indazol-5-yl)ethynyl)-[2,4′-bipyrimidin]-2′-yl)-2,3-dihydro-1H-pyrrolo[3,4-c]pyridin-6-ol] | > 6 µM | >23 | 0.26 µM |  |
| Fc1ccc(N2CCN(c3nccc(-c4nccc(C#Cc5ccc6[nH]ncc6c5)n4)n3)CC2)cc1 [Ex. 53, 5-((2′-(4-(4-Fluorophenyl)piperazin-1-yl)-[2,4′-bipyrimidin]-4-yl)ethynyl)-1H-indazole] | 4.7 µM | 58.8 | 0.08 µM |  |
| Brc1ccc2c(c1)CN(c1nccc(-c3nccc(C#Cc4ccc5[nH]ncc5c4)n3)n1)C2 [Ex. 30, 5-((2′-(5-Bromoisoindolin-2-yl)-[2,4′-bipyrimidin]-4-yl)ethynyl)-1H-indazole] | 0.77 µM | 132.8 | 0.0058 µM |  |
| Clc1ccc(C2CN(c3nccc(-c4nccc(C#Cc5ccc6[nH]ncc6c5)n4)n3)C2)cc1 [Ex. 57, 5-((2′-(3-(4-Chlorophenyl)azetidin-1-yl)-[2,4′-bipyrimidin]-4-yl)ethynyl)-1H-indazole] | 6.7 µM | 30.5 | 0.22 µM |  |
| COC(=O)c1ccc(C#Cc2ccnc(-c3ccnc(N4Cc5ccc(OC)cc5C4)n3)n2)cc1 [Ex. 8, Methyl 4-((2′-(5-methoxyisoindolin-2-yl)-[2,4′-bipyrimidin]-4-yl)ethynyl)benzoate] | > 30 µM |  | > 30 µM |  |
| CN(C)CCOc1ccc2c(c1)CN(c1nccc(-c3cccc(C#Cc4ccc5[nH]ncc5c4)n3)n1)C2 [Ex. 22, 2-((2-(4-(6-((1H-Indazol-5-yl)ethynyl)pyridin-2-yl)pyrimidin-2-yl)isoindolin-5-yl)oxy)-N,N-dimethylethanamine] | > 30 µM | >20 | 1.5 µM |  |
| Fc1ccc2c(c1)CN(c1nccc(-c3nccc(C#Cc4ccc5[nH]nc(F)c5c4)n3)n1)C2 [Ex. 31, 3-Fluoro-5-((2′-(5-fluoroisoindolin-2-yl)-[2,4′-bipyrimidin]-4-yl)ethynyl)-1H-indazole] | > 30 µM | >411 | 0.073 µM |  |
| CN(C)CCOc1ccc2c(c1)CN(c1nccc(-c3nccc(C#Cc4ccc5[nH]ncc5c4)n3)n1)C2 [Ex. 39, 2-((2-(4-((1H-Indazol-5-yl)ethynyl)-[2,4′-bipyrimidin]-2′-yl)isoindolin-5-yl)oxy)-N,N-dimethylethanamine] | 0.67 µM | 25.8 | 0.026 µM |  |
| COc1ccc2c(c1)CN(c1nccc(-c3cccc(C#Cc4ccc5[nH]ncc5c4)n3)n1)C2 [Ex. 18, 5-((6-(2-(5-Methoxyisoindolin-2-yl)pyrimidin-4-yl)pyridin-2-yl)ethynyl)-1H-indazole] | 25 µM |  | 0.12 µM |  |
| Oc1ccc(N2CCN(c3nccc(-c4nccc(C#Cc5ccc6[nH]ncc6c5)n4)n3)CC2)cc1 [Ex. 62, 4-(4-(4-((1H-Indazol-5-yl)ethynyl)-[2,4′-bipyrimidin]-2′-yl)piperazin-1-yl)phenol] | 13 µM | 118.2 | 0.11 µM |  |
| COc1ccc2c(c1)CN(c1nccc(-c3nccc(C#Cc4cc(F)c5[nH]ncc5c4)n3)n1)C2 [Ex. 6, 7-Fluoro-5-((2′-(5-methoxyisoindolin-2-yl)-[2,4′-bipyrimidin]-4-yl)ethynyl)-1H-indazole] | 29 µM | 2417 | 0.012 µM |  |
| C(#Cc1ccnc(-c2ccnc(N3Cc4ccc(OCCN5CCOCC5)cc4C3)n2)n1)c1ccc2[nH]ncc2c1 [Ex. 42, 4-(2-((2-(4-((1H-Indazol-5-yl)ethynyl)-[2,4′-bipyrimidin]-2′-yl)isoindolin-5-yl)oxy)ethyl)morpholine] | 0.64 µM | 7.71 | 0.083 µM |  |
| CNC(=O)COc1ccc2c(c1)CN(c1nccc(-c3nccc(C#Cc4ccc5[nH]ncc5c4)n3)n1)C2 [Ex. 44, 2-((2-(4-((1H-Indazol-5-yl)ethynyl)-[2,4′-bipyrimidin]-2′-yl)isoindolin-5-yl)oxy)-N-methylacetamide] | 0.075 µM | 32.6 | 0.0023 µM |  |
| Fc1ccc(C2CCN(c3nccc(-c4nccc(C#Cc5ccc6[nH]ncc6c5)n4)n3)C2)cc1 (stereo not shown) [Ex. 71, 5-((2′-(3-(4-Fluorophenyl)pyrrolidin-1-yl)-[2,4′-bipyrimidin]-4-yl)ethynyl)-1H-indazole] | 13 µM | 36.1 | 0.36 µM |  |
| COc1ccc2c(c1)CN(c1nccc(-c3nccc(C#Cc4ccc5c(c4)CNC5=O)n3)n1)C2 [Ex. 7, 5-((2′-(5-Methoxyisoindolin-2-yl)-[2,4′-bipyrimidin]-4-yl)ethynyl)isoindolin-1-one] | > 30 µM |  | > 30 µM |  |
| Fc1ccc2c(c1)CN(c1ccnc(-c3ccnc(C#Cc4ccc5[nH]ncc5c4)n3)n1)C2 [Ex. 34, 5-((4-(5-Fluoroisoindolin-2-yl)-[2,4′-bipyrimidin]-2′-yl)ethynyl)-1H-indazole] | 0.089 µM | 2.87 | 0.031 µM |  |
| COC(=O)c1ccc(C2CN(c3nccc(-c4nccc(C#Cc5ccc6[nH]ncc6c5)n4)n3)C2)cc1 [Ex. 49, Methyl 4-(1-(4-((1H-indazol-5-yl)ethynyl)-[2,4′-bipyrimidin]-2′-yl)azetidin-3-yl)benzoate trifluoroacetate] | > 30 µM | >120 | 0.25 µM |  |
| CN1CCN(c2ccc3c(c2)CN(c2nccc(-c4cccc(C#Cc5ccc6[nH]ncc6c5)n4)n2)C3)CC1 [Ex. 23, 5-((6-(2-(5-(4-Methylpiperazin-1-yl)isoindolin-2-yl)pyrimidin-4-yl)pyridin-2-yl)ethynyl)-1H-indazole] | > 30 µM | >45 | 0.66 µM |  |

Source: patent publication US20220281841A1, “ETHYNYLHETEROCYCLES AS RHO-ASSOCIATED COILED-COIL KINASE (ROCK) INHIBITORS” (Angion Biomedica Corp., priority 2019, published 2022)
